From DBAASP
Values after ≈ are worked out from the molar mass of the structure shown. Values joined by “and” are separate entries in the source; they are usually repeats but may differ in a detail not shown here. Equal entries are not always repeated. One block for each molecule: values may come before it.

Columns and labels:
Assay in all cases: ≥ marks a high value that may be exact or a test limit, other limits are often not marked, values filed in µg/mL are converted to µM
[1] = tested on: Candida albicans ATCC 36232
[2] = tested on: Escherichia coli ATCC 2592
[3] = tested on: Micrococcus luteus ATCC 9341
[4] = tested on: Proteus vulgaris ATCC 6380
[5] = tested on: Pseudomonas aeruginosa ATCC 9027
[6] = tested on: Staphylococcus aureus ATCC 6538
Staphylococcus aureus = tested on: Staphylococcus aureus
[7] = tested on: Candida albicans CGMCC 2.2086
[8] = tested on: Candida parapsilosis CGMCC 2.3989
[9] = tested on: Candida tropicalis CGMCC 2.1975
[10] = tested on: Lacticaseibacillus rhamnosus 7469
[11] = tested on: Lactiplantibacillus plantarum 8014
[12] = tested on: Salmonella enterica subsp. enterica serovar Typhimurium ATCC 14028
[13] = tested on: Salmonella enterica subsp. enterica serovar Typhimurium C77-31
[14] = tested on: Staphylococcus aureus ATCC 25923
[15] = tested on: Staphylococcus aureus ATCC 29213
[16] = tested on: Staphylococcus epidermidis ATCC 12228
Escherichia coli MG1655 = tested on: Escherichia coli MG1655
[17] = tested on: Pseudomonas aeruginosa PA7
[18] = tested on: Pseudomonas aeruginosa PAO1
[19] = tested on: Staphylococcus aureus NCTC 8325
Escherichia coli K-12 = tested on: Escherichia coli K-12
[20] = tested on: Pseudomonas aeruginosa PA214
[21] = tested on: Pseudomonas aeruginosa PA287
[22] = tested on: Escherichia coli ATCC 25922
[23] = tested on: Klebsiella pneumoniae ATCC 13883
[24] = tested on: Staphylococcus aureus JE2
[25] = tested on: Klebsiella pneumoniae E406-17
[26] = tested on: Pseudomonas aeruginosa E411-17
[27] = tested on: Staphylococcus aureus M838-17
[28] = tested on: Staphylococcus aureus USA 300 LAC

SMILES: CC[C@H](C)[C@H](N)C(=O)N[C@@H](Cc1cnc[nH]1)C(=O)N[C@@H](Cc1cnc[nH]1)C(=O)N[C@H](C(=O)N[C@@H](Cc1cnc[nH]1)C(=O)N[C@@H](Cc1cnc[nH]1)C(=O)N[C@H](C(=O)N[C@H](C(=O)N[C@@H](Cc1cnc[nH]1)C(=O)N[C@@H](Cc1cnc[nH]1)C(=O)N[C@H](C(=O)N[C@@H](Cc1cnc[nH]1)C(=O)N[C@@H](Cc1cnc[nH]1)C(=O)N[C@H](C(=O)N[C@H](C(=O)N[C@@H](Cc1cnc[nH]1)C(=O)N[C@@H](Cc1cnc[nH]1)C(=O)N[C@H](C(=O)N[C@@H](Cc1cnc[nH]1)C(=O)N[C@@H](Cc1cnc[nH]1)C(=O)N[C@H](C(=O)N[C@H](C(=O)N[C@@H](Cc1cnc[nH]1)C(=O)N[C@@H](Cc1cnc[nH]1)C(=O)N[C@H](C(=O)N[C@@H](Cc1cnc[nH]1)C(=O)N[C@@H](Cc1cnc[nH]1)C(=O)N[C@H](C(N)=O)[C@@H](C)CC)[C@@H](C)CC)[C@@H](C)CC)[C@@H](C)CC)[C@@H](C)CC)[C@@H](C)CC)[C@@H](C)CC)[C@@H](C)CC)[C@@H](C)CC)[C@@H](C)CC)[C@@H](C)CC [IHHIHHIIHHIHHIIHHIHHIIHHIHHI]
MIC [7]: ≥ 64 µM | MIC [8]: ≥ 64 µM | MIC [9]: 8 µM (≈ 28.6 µg/mL) | MIC [10]: ≥ 64 µM | MIC [11]: 2 µM (≈ 7.14 µg/mL) | MIC [12]: > 64 µM | MIC [13]: ≥ 64 µM | MIC [14]: > 64 µM | MIC [15]: > 64 µM | MIC [16]: > 64 µM

SMILES: CC[C@H](C)[C@H](N)C(=O)N[C@@H](Cc1cnc[nH]1)C(=O)N[C@@H](Cc1cnc[nH]1)C(=O)N[C@H](C(=O)N[C@@H](Cc1cnc[nH]1)C(=O)N[C@@H](Cc1cnc[nH]1)C(=O)N[C@H](C(=O)N[C@H](C(=O)N[C@@H](Cc1cnc[nH]1)C(=O)N[C@@H](Cc1cnc[nH]1)C(=O)N[C@H](C(=O)N[C@@H](Cc1cnc[nH]1)C(=O)N[C@@H](Cc1cnc[nH]1)C(=O)N[C@H](C(N)=O)[C@@H](C)CC)[C@@H](C)CC)[C@@H](C)CC)[C@@H](C)CC)[C@@H](C)CC [IHHIHHIIHHIHHI]
MIC [7]: 8 µM (≈ 14.3 µg/mL) | MIC [8]: 4 µM (≈ 7.17 µg/mL) | MIC [9]: 1 µM (≈ 1.79 µg/mL) | MIC [10]: ≥ 64 µM | MIC [11]: ≥ 64 µM | MIC [12]: 32 µM and 64 µM | MIC [14]: > 64 µM | MIC [15]: > 64 µM | MIC [16]: > 64 µM

SMILES: CC[C@H](C)[C@H](NC(=O)[C@H](CCCCN)NC(=O)[C@@H](N)CCCN=C(N)N)C(=O)N[C@@H](Cc1c[nH]c2ccccc12)C(=O)N[C@@H](Cc1c[nH]c2ccccc12)C(=O)N[C@@H](Cc1c[nH]c2ccccc12)C(=O)N[C@@H](Cc1c[nH]c2ccccc12)C(=O)N[C@@H](CC(C)C)C(N)=O [RKIWWWWL]
MIC [22]: 6.2 µM (≈ 7.89 µg/mL) | MIC [23]: 4.38 µM (≈ 5.58 µg/mL) | MIC [25]: 12.5 µM (≈ 15.9 µg/mL) | MIC [26]: ≥ 50 µM | MIC [27]: 8.8 µM (≈ 11.2 µg/mL) | MIC [28]: 4.38 µM (≈ 5.58 µg/mL)

Now from value to molecule:

MIC [1]: 1.16 µM (≈ 3.12 µg/mL) | MIC [2]: 2.33 µM (≈ 6.25 µg/mL) | MIC [3]: 1.16 µM (≈ 3.12 µg/mL) | MIC [4]: ≥ 37.3 µM | MIC [5]: 1.16 µM (≈ 3.12 µg/mL) | MIC [6]: 2.33 µM (≈ 6.25 µg/mL) | MIC (Staphylococcus aureus): 2.33 µM (≈ 6.25 µg/mL)
SMILES: CC[C@H](C)[C@H](NC(=O)[C@H](CCCCN)NC(=O)[C@@H]1CCCN1C(=O)[C@H](CC(C)C)NC(=O)[C@H](Cc1ccccc1)NC(=O)[C@H](CC(N)=O)NC(=O)[C@H](C)NC(=O)[C@H](C)NC(=O)[C@H](CC(C)C)NC(=O)CNC(=O)[C@H](C)NC(=O)[C@H](CC(C)C)NC(=O)[C@H](CC(C)C)NC(=O)[C@@H]1CCCN1C(=O)[C@H](CC(C)C)NC(=O)[C@@H](N)Cc1ccccc1)C(=O)N[C@@H](Cc1ccccc1)C(=O)N[C@@H](CS)C(=O)N[C@@H](CCCCN)C(=O)N[C@H](C(=O)N[C@H](C(=O)N[C@@H](CCCN=C(N)N)C(=O)N[C@@H](CCCCN)C(=O)N[C@@H](CS)C(N)=O)[C@@H](C)O)[C@@H](C)CC [FLPLLAGLAANFLPKIFCKITRKC]

MIC (Escherichia coli MG1655): 1 µM (≈ 3.02 µg/mL) | MIC [17]: 8 µM (≈ 24.2 µg/mL) | MIC [18]: 5.66 µM (≈ 17.1 µg/mL) | MIC [19]: ≥ 362 µM
SMILES: CC[C@H](C)[C@H](N)C(=O)N[C@@H](CCCCN)C(=O)N[C@H](C(=O)N1CCC[C@H]1C(=O)N1CCC[C@H]1C(=O)N[C@H](C(=O)N[C@H](C(=O)N[C@@H](CCCCN)C(=O)N[C@@H](CC(=O)O)C(=O)N[C@H](C(=O)N[C@@H](CC(C)C)C(=O)N[C@@H](CCCCN)C(=O)N[C@@H](CCCCN)C(=O)N[C@H](C(=O)N[C@@H](C)C(=O)N[C@@H](CCCCN)C(=O)NCC(=O)N[C@H](C(=O)N[C@@H](CC(C)C)C(=O)N[C@@H](CO)C(=O)N[C@H](C(=O)N[C@H](C(=O)N[C@@H](C)C(=O)N[C@@H](CC(=O)O)C(=O)N[C@@H](C)C(=O)N[C@@H](CC(C)C)C(=O)N[C@@H](CO)C(=O)N[C@@H](CCCCN)C(=O)N[C@@H](CO)C(=O)O)C(C)C)[C@@H](C)O)C(C)C)C(C)C)[C@@H](C)O)C(C)C)[C@@H](C)CC)[C@@H](C)CC [IKIPPIVKDTLKKVAKGVLSTVADALSKS]

MIC (Escherichia coli K-12): 12.5 µM (≈ 22.9 µg/mL) | MIC [20]: ≥ 50 µM | MIC [21]: ≥ 50 µM | MIC [18]: 50 µM (≈ 91.8 µg/mL)
SMILES: C[C@H](NC(=O)[C@H](C)NC(=O)[C@H](Cc1ccccc1)NC(=O)[C@H](C)NC(=O)[C@H](CCCCN)NC(=O)[C@H](C)NC(=O)[C@H](Cc1c[nH]c2ccccc12)NC(=O)[C@H](C)NC(=O)[C@H](CCCCN)NC(=O)[C@H](C)NC(=O)[C@H](Cc1ccccc1)NC(=O)[C@H](C)NC(=O)[C@H](C)NC(=O)[C@H](CCCCN)NC(=O)[C@H](CCCCN)NC(=O)[C@H](CCCCN)NC(=O)[C@@H](N)CCCCN)C(N)=O [KKKKAAFAKAWAKAFAA]

MIC [22]: > 25 µM | MIC [23]: 25 µM (≈ 37.3 µg/mL) | MIC [18]: > 25 µM | MIC [24]: 1.56 µM (≈ 2.33 µg/mL)
SMILES: CC(C)C[C@H](NC(=O)[C@H](CC(C)C)NC(=O)[C@H](CCCCN)NC(=O)[C@H](CC(C)C)NC(=O)CNC(=O)[C@H](CC(C)C)NC(=O)[C@H](CCCCN)NC(=O)[C@H](CC(C)C)NC(=O)[C@H](CC(C)C)NC(=O)[C@H](CC(C)C)NC(=O)[C@H](CCCCN)NC(=O)[C@H](CC(C)C)NC(=O)[C@@H](N)CCCCN)C(N)=O [KLKLLLKLGLKLL]

MIC (Escherichia coli MG1655): 1 µM (≈ 3.1 µg/mL) | MIC [17]: 4 µM (≈ 12.4 µg/mL) | MIC [18]: 4 µM (≈ 12.4 µg/mL) | MIC [19]: ≥ 128 µM
SMILES: CC[C@H](C)[C@H](NC(=O)[C@H](CCC(=O)O)NC(=O)[C@H](CCCCN)NC(=O)[C@H](C)NC(=O)[C@@H](NC(=O)[C@H](CCCCN)NC(=O)[C@H](CCCCN)NC(=O)[C@H](CC(C)C)NC(=O)[C@@H](NC(=O)[C@H](CC(=O)O)NC(=O)[C@H](CCCN=C(N)N)NC(=O)[C@@H](NC(=O)[C@H](Cc1ccccc1)NC(=O)CNC(=O)[C@@H]1CCCN1C(=O)[C@@H](NC(=O)[C@H](CCCCN)NC(=O)[C@@H](N)CC(C)C)[C@@H](C)CC)C(C)C)[C@@H](C)O)C(C)C)C(=O)N[C@@H](Cc1ccccc1)C(=O)N[C@@H](CO)C(=O)N[C@@H](C)C(=O)N[C@H](C(=O)N[C@H](C(=O)NCC(=O)N[C@@H](C)C(=O)N[C@H](C(=O)N[C@H](C(=O)N[C@@H](CCC(N)=O)C(=O)N[C@@H](CO)C(=O)O)[C@@H](C)O)C(C)C)[C@@H](C)O)C(C)C [LKIPGFVRDTLKKVAKEIFSAVTGAVTQS]
